Structures are written as SMILES.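 Five concentrations, 48 hours, 96-well plates. GI50 is the concentration that inhibits growth by half.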 The source made the active and inactive calls. No stated cut-off is given here; in the data, active = GI50 up to about 1.1 µM and inactive = higher.

Holding throughout (experiment): inhibition of tumour cell growth, NCI panel, 48 h
The test system of assay [1] is HCC 2998.
In assay [2] the test system is IGROV-1.
The test system of assay [3] is SN12C.
For assay [4], the system named is OVCAR-3.
Assay [5] relates to SF-295.
Assay [6] has as its system HOP-92.
The subject of assay [7] is CCRF-CEM.
Assay [8] relates to SNB-19.
Assay [9] relates to UACC-257.
For assay [10], the system named is SNB-75.
Assay [11] deals with HL-60.
Assay [12] concerns NCI-H460.
In assay [13] the test system is UO-31.
Assay [14] has as its system NCI-H226.
Assay [15] has as its system K562.
The subject of assay [16] is M14.
Assay [17] concerns LOX IMVI.
Assay [18] relates to RXF 393.
For assay [19], the system named is NCI-H23.
The subject of assay [20] is EKVX.

As for `CCOC(=O)c1c(NCc2ccccc2)n(-c2ccccc2)c(=S)n(-c2ccccc2)c1=O`, the GI50 in assay [1] was > 100 µM (inactive); in assay [2] it was > 100 µM (inactive); in assay [3], > 100 µM (inactive); in assay [4], > 100 µM (inactive); in assay [5] it was 49.4 µM (inactive); in [6] it was > 100 µM (inactive). Further, the GI50 in assay [7] is 29.4 µM (inactive); in assay [8] it was > 100 µM (inactive); in [9] it was > 100 µM (inactive); in [10], 33.7 µM (inactive); in assay [11], 35.6 µM (inactive); in assay [12], > 100 µM (inactive). In addition, the GI50 in [13] is 45.8 µM (inactive); in assay [14] it was > 100 µM (inactive); in assay [15], 41.1 µM (inactive); in [16] it was > 100 µM (inactive); in assay [17] it was > 100 µM (inactive); in [18], > 100 µM (inactive). In addition, the GI50 in assay [19] was > 100 µM (inactive).

For `CN1CC2=C(N=C(S)NC2c2ccccc2Cl)/C(=C/c2ccccc2Cl)C1` (stereo not drawn), the GI50 was > 100 µM (inactive) in assay [1]; 53.7 µM (inactive) in assay [2]; 46.2 µM (inactive) in assay [3]; 21.5 µM (inactive) in assay [4]; 53.5 µM (inactive) in assay [5]; 3.81 µM (inactive) in assay [6]. Besides, the GI50 in assay [7] was 28.8 µM (inactive); in assay [8], > 100 µM (inactive); in assay [9] it was 55.8 µM (inactive); in [10], 3.33 µM (inactive); in [11] it was 21.8 µM (inactive); in assay [12], > 100 µM (inactive). Moreover, the GI50 in assay [13] is 25.6 µM (inactive); in [14], 52.7 µM (inactive); in [15] it was 29 µM (inactive); in assay [16] it was 38.9 µM (inactive); in assay [20] it was 43.2 µM (inactive); in assay [17], 51.1 µM (inactive). Besides, the GI50 in assay [18] was > 100 µM (inactive); in assay [19], 43.2 µM (inactive).

For `NC1=C(O)c2cccc3cccc(c23)C1=O`, the GI50 in [1], in [2], in assay [3], in [4], in assay [5] and in assay [6] was > 100 µM (inactive) throughout. Also, the GI50 in assay [7] was > 100 µM (inactive); in assay [8], > 100 µM (inactive); in assay [9] it was > 100 µM (inactive); in assay [10] it was > 100 µM (inactive); in [11] it was > 100 µM (inactive); in [13], 51.6 µM (inactive). For the same molecule, the GI50 in assay [14] was 35.9 µM (inactive); in [15] it was > 100 µM (inactive); in assay [16], > 100 µM (inactive); in assay [20], > 100 µM (inactive); in assay [17], > 100 µM (inactive); in assay [18], > 100 µM (inactive). For the same molecule, in [19], the GI50 is > 100 µM (inactive).

With `CC[C@@]1(O)C(=O)OCc2c1cc1n(c2=O)Cc2c-1nc1ccccc1c2/C=N\NC(=O)C(C)N` (stereo partly drawn), the GI50 in [1] is 0.332 µM (active); in [2], 1.13 µM (inactive); in assay [3], < 0.01 µM (active); in assay [4] it was 7.06 µM (inactive); in assay [5], < 0.0371 µM (active); in [6] it was 0.179 µM (active). Moreover, the GI50 in assay [7] is < 0.01 µM (active); in assay [8], 0.0233 µM (active); in assay [9], 1.37 µM (inactive); in [10], < 0.0298 µM (active); in assay [11] it was < 0.028 µM (active); in assay [12], < 0.0243 µM (active). Also, the GI50 in assay [13] was 0.182 µM (active); in [14] it was 0.33 µM (active); in assay [16], 0.254 µM (active); in [20], 11.9 µM (inactive); in assay [17], 0.0254 µM (active); in assay [18], 1.04 µM (active). In assay [19], the GI50 is < 0.0214 µM (active).

Turning to `O=C(Nc1ccccc1)Oc1ccccc1C1CCCCC1`, the GI50 in assay [1] is 25.9 µM (inactive); in assay [2], 24.8 µM (inactive); in [3], 18.9 µM (inactive); in assay [4], 12.7 µM (inactive); in assay [5], 17.3 µM (inactive); in [6], 10.4 µM (inactive). In addition, the GI50 was 19.5 µM (inactive) in [7]; 63.1 µM (inactive) in [8]; 16.9 µM (inactive) in [9]; 6.38 µM (inactive) in assay [10]; 9.71 µM (inactive) in assay [11]; 20 µM (inactive) in assay [12]. For the same molecule, the GI50 in assay [13] was 13.1 µM (inactive); in [14], 13.2 µM (inactive); in [15] it was 17.9 µM (inactive); in assay [16], 23.6 µM (inactive); in assay [20], 20.1 µM (inactive); in [17] it was 13.8 µM (inactive). Also, the values for the GI50 in assay [18] and in assay [19] were 2.96 µM (inactive) and 14.4 µM (inactive), respectively.

Consider `Nc1nc(N)c(N=O)c(Nc2ccc(O)cc2)n1`, for which the GI50 is 72.3 µM (inactive) in assay [1]; 7.82 µM (inactive) in assay [2]; 31.1 µM (inactive) in assay [3]; 47.2 µM (inactive) in assay [4]; > 44.7 µM (inactive) in assay [5]; 20.8 µM (inactive) in [6]. Further, the GI50 in assay [7] is 14.9 µM (inactive); in assay [8], > 52 µM (inactive); in assay [9], > 66.8 µM (inactive); in assay [10] it was 18.2 µM (inactive); in assay [11], 9.53 µM (inactive); in assay [12], > 61.1 µM (inactive). Besides, the GI50 was 41.5 µM (inactive) in assay [13]; 23.7 µM (inactive) in [14]; > 45.6 µM (inactive) in [15]; 6.05 µM (inactive) in [16]; > 69.8 µM (inactive) in [20]; 30.3 µM (inactive) in [17]. The figures for the GI50 in [18] and in assay [19] were 93.3 µM (inactive) and 49.9 µM (inactive), respectively.

Consider `O=[N+]([O-])c1cc(Cl)cc2cc(Br)cnc12`, for which the GI50 in [1] was > 31.6 µM (inactive); in assay [3] it was > 31.6 µM (inactive); in assay [4] it was > 31.6 µM (inactive); in assay [5], 21.9 µM (inactive); in [6], 5.46 µM (inactive); in assay [7] it was > 31.6 µM (inactive). Further, the GI50 in [8] is 27.8 µM (inactive); in assay [9], 31.1 µM (inactive); in [10], > 31.6 µM (inactive); in [11] it was > 31.6 µM (inactive); in assay [12], > 31.6 µM (inactive); in [13], > 31.6 µM (inactive). The GI50 in [14] was 29.6 µM (inactive); in [15], > 31.6 µM (inactive); in assay [16], > 31.6 µM (inactive); in assay [20] it was > 31.6 µM (inactive); in assay [17], > 31.6 µM (inactive); in assay [18], > 31.6 µM (inactive). Also, the GI50 in assay [19] was 26.9 µM (inactive).

For the molecule `Cc1nn(C(=O)c2ccc(Cl)cc2)c2c1C(c1ccccc1O)SC(=N)N2` (stereo not drawn), the GI50 in assay [1], in assay [2], in assay [3], in [4], in assay [5] and in [6] was > 10 µM (inactive) in each case. Besides, the GI50 in [7], in assay [8], in [9], in assay [10], in assay [11] and in assay [12] was > 10 µM (inactive) in each case. Further, the GI50 in assay [14], in [15], in assay [16], in assay [20], in assay [17] and in [18] was > 10 µM (inactive) throughout. In addition, in assay [19], the GI50 is > 10 µM (inactive).

Regarding `Cc1nn(C(=O)c2ccncc2)c2c1C(c1cccc([N+](=O)[O-])c1)SC(=N)N2` (stereo not drawn), the GI50 in assay [1], in [2], in assay [3], in assay [4], in [5] and in assay [6] was > 10 µM (inactive) each time. Further, the GI50 in assay [7], in [8], in assay [9], in assay [10], in assay [11] and in assay [12] was > 10 µM (inactive) throughout. Also, the GI50 in [14], in assay [15], in assay [16], in assay [20], in assay [17] and in [18] was > 10 µM (inactive) each time. Besides, the GI50 in assay [19] was > 10 µM (inactive).

In the case of `CN(C)CC1CCCC/C1=N\OC(=O)c1ccccc1` (stereo not drawn), the GI50 in [1], in assay [2], in assay [3], in [4], in assay [5] and in [6] was > 100 µM (inactive) each time. Further, the GI50 in assay [7], in assay [9], in assay [10], in assay [11], in assay [12] and in assay [13] was > 100 µM (inactive) in each case. Moreover, the GI50 in [14], in [15], in assay [16], in assay [20], in [17] and in assay [18] was > 100 µM (inactive) in each case. Moreover, the GI50 in [19] is > 100 µM (inactive).

These data come from ChEMBL document CHEMBL1201862, “PubChem BioAssay data set” (2004).
